# From US7851641B2, “Compounds useful for treating neurodegenerative disorders” (Satori Pharmaceuticals, Inc., priority 2005, dated 2010)
# Experiments:
# amyloid-β (1-42) peptide [1] = test: IP-MS quantification of amyloid-β peptides (Wang et al protocol); assay type: cell-based; settings: in vitro, FIG. 21
# Procedure: (§1) Compounds of the present invention were assayed to determine their effect on the total ration of amyloid-β (1-42) peptide in vitro using an assay protocol substantially similar to that described by Wang et al, J. Biol. Chem. 1996, 50:31894-31902, The Profile of Soluble Amyloid β Protein in Cultured Cell Media, the entirety of which is hereby incorporated herein by reference. This assay quantifies amyloid-β protein using immunoprecipitation and mass spectrometry (IP-MS).
# amyloid-β (1-42) peptide [2] = test: IP-MS quantification of amyloid-β peptides in 7W cells (APPwt) and 7PA2 cells (APPV717F); assay type: cell-based; settings: FIG. 22
# Procedure: as §1
# Compound 6 was also assayed according to the method described in Wang et al, in 7W cells (APPwt) and 7PA2 cells (APPV717F). The APP717 mutations increase the relative amount of amyloid-β (1-42) peptide. In this assay, it was shown that compound 6 reduces amyloid-β (1-42) peptide while increasing amyloid-β (1-39) peptide.
structure (smiles),measurement,setting,value
"CC(=O)O[C@@H]([C@H]1C[C@@H](C)C2=C(O1)[C@H](O)[C@@]1(C)[C@@H]3CC[C@H]4C(C)(C)[C@@H](O[C@@H]5OC[C@@H](O)[C@H](O)[C@H]5O)CC[C@@]45C[C@@]35CC[C@]21C)C(C)(C)O [Compound 6, 24-O-Acetylhydroshengmanol 3-β-D-xylopyranoside (delta-16,17)-enol ether]",effect on amyloid-β (1-37) peptide,amyloid-β (1-42) peptide [1],increasing
same,effect on amyloid-β (1-39) peptide,amyloid-β (1-42) peptide [1],increasing
same,effect on amyloid-β (1-42) peptide,amyloid-β (1-42) peptide [1],reduced
same,effect on amyloid-β (1-39) peptide,amyloid-β (1-42) peptide [2],increasing
same,effect on amyloid-β (1-42) peptide,amyloid-β (1-42) peptide [2],reduces
